Reference: PubChem BioAssay (NCI)
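Each compound was tested at five concentrations against cells in 96-well plates for 48 hours. GI50 = concentration required for 50% inhibition of growth. TGI marks complete inhibition of growth.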

Assays:
Test in all cases: DTP human tumour cell line panel, 48 h
HCC-2998 colon = tested on: HCC-2998 colon
HS 578T breast = tested on: HS 578T breast
M14 melanoma = tested on: M14 melanoma
MDA-MB-435 = tested on: MDA-MB-435
NCI-H23 lung = tested on: NCI-H23 lung
NCI/ADR-RES ovarian = tested on: NCI/ADR-RES ovarian
PC-3 prostate = tested on: PC-3 prostate
RPMI-8226 leukemia = tested on: RPMI-8226 leukemia
SK-OV-3 ovarian = tested on: SK-OV-3 ovarian
UACC-62 melanoma = tested on: UACC-62 melanoma

| SMILES | GI50 (HCC-2998 colon) | TGI (HCC-2998 colon) | GI50 (HS 578T breast) | TGI (HS 578T breast) | GI50 (M14 melanoma) | TGI (M14 melanoma) | GI50 (MDA-MB-435) | TGI (MDA-MB-435) | GI50 (NCI-H23 lung) | TGI (NCI-H23 lung) | GI50 (NCI/ADR-RES ovarian) | TGI (NCI/ADR-RES ovarian) | GI50 (PC-3 prostate) | TGI (PC-3 prostate) | GI50 (RPMI-8226 leukemia) | TGI (RPMI-8226 leukemia) | GI50 (SK-OV-3 ovarian) | TGI (SK-OV-3 ovarian) | GI50 (UACC-62 melanoma) | TGI (UACC-62 melanoma) |
| --- | --- | --- | --- | --- | --- | --- | --- | --- | --- | --- | --- | --- | --- | --- | --- | --- | --- | --- | --- | --- |
| Cc1nccc2c3ccc(OCc4cn(-c5ccc(Cl)cc5)nn4)cc3n(CC(C)C)c12 | 3.68 µM | > 33.3 µM | 2.62 µM | 30.1 µM | 1.61 µM | 13.9 µM | 3.38 µM | > 33.3 µM | 1.88 µM | 17.2 µM | 1.73 µM | 30.8 µM | 1.52 µM | > 33.3 µM | 1.09 µM | 3.95 µM | 4.25 µM | 16.5 µM | 2.31 µM | 10.1 µM |
| CCn1ccc(NS(=O)(=O)c2ccc(N)cc2)nc1=O | > 100 µM | > 100 µM | 33.8 µM | > 100 µM | > 100 µM | > 100 µM | > 100 µM | > 100 µM | > 100 µM | > 100 µM | > 100 µM | > 100 µM | > 100 µM | > 100 µM | > 100 µM | > 100 µM | > 100 µM | > 100 µM | > 100 µM | > 100 µM |
| COc1cc(/C=C/C(=O)c2c(C)nc3ccccc3c2C)ccc1OCCCN1CCN(C(=O)c2ccco2)CC1 | 10.4 µM | 22.1 µM | 12 µM | 51.8 µM | 11.6 µM | 23.8 µM | 4.55 µM | 19.8 µM | 6.39 µM | 24.7 µM | 5.55 µM | 45.2 µM | 6.44 µM | 26.7 µM | 1.92 µM | 11.9 µM | 16.1 µM | 52 µM | 8.39 µM | 21.7 µM |
| Cc1cc(=O)oc2cc(OC/C=C3\CCC(=O)O3)ccc12 | 16 µM | 31.4 µM | 22.9 µM | > 87.4 µM | 9.51 µM | 25 µM | 7.23 µM | 40.9 µM | 14.4 µM | 29.9 µM | 23 µM | 82.9 µM | 9.01 µM | 34.1 µM | 3.2 µM | 18.7 µM | 28.2 µM | > 76 µM | 13.8 µM | 28.7 µM |
| COCCn1cc(-c2csc(-c3c[nH]c4ccc(Br)cc34)n2)c2cccnc21 | 3.8 µM | > 100 µM | 4.44 µM | 43 µM | 3.27 µM | 60.2 µM | 4.12 µM | > 100 µM | 3.21 µM | > 100 µM | 2.86 µM | > 100 µM | 3.68 µM | > 100 µM | 5.14 µM | > 100 µM | 13.9 µM | > 100 µM | 4.2 µM | > 100 µM |
| Nc1c(F)cc(-c2nc3cc(F)ccc3[se]2)cc1Br | 0.0477 µM | 0.35 µM | 44.7 µM | > 100 µM | 16.5 µM | > 100 µM | 14.6 µM | > 100 µM | 0.0414 µM | 20 µM | 38.9 µM | > 100 µM | 14.5 µM | > 100 µM | – | > 100 µM | 2.31 µM | 39.3 µM | 1.06 µM | > 100 µM |
| CCCCCC[C@H](C)NC(=O)c1ccc(Nc2nc3ccccc3c3occc23)cc1 | 1.26 µM | 4.16 µM | 4.68 µM | 67.6 µM | 2.25 µM | 5.37 µM | 2.9 µM | 15.3 µM | 2.41 µM | 6.08 µM | 2.48 µM | 6.99 µM | 5.36 µM | > 100 µM | 4.03 µM | > 100 µM | 5.11 µM | > 100 µM | 16 µM | 35.5 µM |
| Cc1cc(Cl)cc(Cc2cc(Cl)cc(C)c2O)c1O | 2.68 µM | 7.95 µM | 2.55 µM | 7.75 µM | 2.98 µM | 11.3 µM | 2.05 µM | 6.39 µM | 1.9 µM | 8.09 µM | 2.07 µM | 5.95 µM | 2.55 µM | 8.68 µM | 1.58 µM | 9.35 µM | 3.18 µM | 8.89 µM | 2.28 µM | 10.6 µM |
| CCN(Cc1ccc(F)cc1)c1ccc(CO)c(OC)c1 | 21.9 µM | > 60.5 µM | 14.9 µM | > 100 µM | 31.1 µM | > 100 µM | 25.7 µM | > 100 µM | 23.3 µM | > 100 µM | 17.6 µM | 55.5 µM | 13.3 µM | 33.9 µM | 15.9 µM | 50.5 µM | 15.3 µM | > 94.6 µM | 4.14 µM | 17.3 µM |
| N#CC1C(=O)NC(c2ccccc2[N+](=O)[O-])c2sc3c(F)cccc3c21 (centres undefined) | 10.1 µM | 32.7 µM | 15.2 µM | 69.9 µM | 16.3 µM | 47.5 µM | 23.2 µM | > 83.9 µM | 8.78 µM | 45 µM | 8.06 µM | 39.8 µM | 12.4 µM | 73 µM | 5.67 µM | > 60.3 µM | 10.1 µM | 62.3 µM | 0.341 µM | 4.27 µM |
| CCCCCCCC(=O)[O][Hg][CH2]C1COC([CH2][Hg][O]C(=O)CCCCCCC)CO1 (centres undefined) | 18 µM | 33.1 µM | 16.8 µM | 46.3 µM | 16.4 µM | 30 µM | 12.9 µM | 25.8 µM | 14.2 µM | 28.6 µM | 20.2 µM | 49.6 µM | 13.7 µM | 26.7 µM | 3.84 µM | > 100 µM | 13.2 µM | 27.6 µM | 17.5 µM | 45.3 µM |
